Measured values as given in patent US5554620A, “Substituted 6,11-ethano-6,11-dihydrobenzo[b] quinolizinium salts and compositions and methods of use thereof” (Sterling Winthrop Inc., priority 1994, dated 1996).

What follows are compounds tested against PCP receptor (assay: [3H]TCP radioreceptor assay (binding to PCP recognition sites)). Conditions: [3H]TCP approx. 1 nM, rat brain membranes; mean of at least two determinations.
Design: species or system rat (male Sprague-Dawley, whole brain)
Procedure: [^3 H]TCP Radioreceptor Assay
[^3 H]TCP binding to PCP recognition sites was performed as described by Vignon et al. Brain Research 1983, 280, 194-197. Male Sprague-Dawley rats were sacrificed by decapitation, and whole brains were homogenized in 10 volumes (wt/vol) of cold Tris-HCl buffer (50 mM, pH 7.7) using a Brinkmann Polytron (setting 6, 30 sec). The homogenate was centrifuged at 40,000×g for 10 min at 4° C. The supernatant was decanted, and the homogenization and centrifugation steps were repeated twice as described above. Following this, the pellet was resuspended in Tris-HCl (5 mM, pH 7.7) at a tissue concentration of 0.5-0.75 g/mL, and one mL aliquots were frozen at -70° C. until use. The binding characteristics for PCP recognition sites were not altered by the freezing of membrane suspensions.
On the day of the assay, membrane aliquots were thawed, resuspended in fresh 5 mM Tris-HCl buffer at a tissue concentration of 1 mg/mL, and stored on ice until use. Each assay tube contained 100 μl of [^3 H]TCP at a final concentration of approximately 1 nM, 100 μL of various concentrations of the compounds of interest, 500 μL of the tissue suspension and 300 μL of buffer to a final assay volume of 1 mL and a final protein concentration of 0.5 mg/tube. Non-specific binding was defined by addition of a final concentration of 100 μM PCP to blank tubes. All tubes were incubated at room temperature for 25 min before termination of the reaction by rapid filtration over Whatman GF/B glass fiber filters that had been presoaked in a solution of 0.5% polyethylenimine for at least 1 hr prior to use. Filters were washed with three 4 mL volumes of cold Tris buffer. Following addition of scintillation cocktail, the amount of bound radioactivity was determined by liquid scintillation spectrometry using a Beckman LS 5000TA liquid scintillation counter with an efficiency for tritium of approximately 55%. Inhibition constants (Ki values) were calculated using the EBDA/LIGAND program (McPherson, J. Pharmacol. Meth. 1985, 14, 213-228), purchased from ElsevierBiosoft, Inc. Results are reported as the Ki values (in nM) which are expressed as the mean of at least two separate determinations; or as a percent (%) inhibition of binding at 10 μM.

Going from `COc1cccc(C23c4ccccc4CC2C2c4ccccc4C3c3cccc[n+]32)c1` (single isomer, unassigned) [5(d), 6,11[2',3']-3'-(3-methoxyphenyl)-indanyl]16,11-dihydrobenzo[b]quinolizinium hexafluorophosphate] to `Cc1ccc(S(=O)(=O)n2nccc2C2(c3ccoc3)CC3c4ccccc4C2c2cccc[n+]23)cc1` (single isomer, unassigned) [Example 184(c), 6,11-ethano-12-(3-furyl)-12-[1-(p-toluenesulfonyl)pyrazol-5-yl]-6,11-dihydrobenzo[b]quinolizinium bromide], the Ki rises from 22 nM to 12900 nM (590-fold).

First: CCCCCCCCOC(=O)CC(C)(C)C(=O)Oc1cccc2c1C1c3cccc[n+]3C2CC1(c1ccoc1)c1ccoc1 (stereo not shown) [194(d), 12,12-di(3-furyl)-10-(OC(O)C(CH3)2 CH2 C(O)OOctyl)-6,11-ethano-6,11-dihydrobenzo[b]quinolizinium chloride]
Second: CCCCCCCC(=O)Oc1cccc2c1C1c3cccc[n+]3C2CC1(c1ccoc1)c1ccoc1 (stereo not shown) [Example 165, 6,11-ethano-12,12-di(3-furyl)-10-octanoyloxy-6,11-dihydrobenzo[b]quinolizinium chloride]
The Ki of the first is 2.3-fold higher: 71.3 nM for the first, 31.3 nM for the second. The second binds more tightly here.

First: Oc1ccc[n+]2c1C1c3ccccc3C2CC1(c1ccoc1)c1ccoc1 (stereo not shown) [Example 168(c), 6,11-ethano-12,12-di(3-furyl)-1-hydroxy-6,11-dihydrobenzo[b]quinolizinium chloride]
Second: C=C1C2c3ccccc3C(c3cccc[n+]32)C1(c1ccoc1)c1ccoc1 (stereo not shown) [162(d), 6,11-ethano-12,12-di(3-furyl)-13-methylene-6,11-dihydrobenzo[b]quinolizinium hexafluorophosphate]
The Ki of the first is 130-fold higher: 306 nM for the first, 2.31 nM for the second.

Going from `FC(F)(F)c1ccc2c(c1)C1c3cccc[n+]3C2CC1(c1ccccc1)c1ccccc1` (stereo not shown) [45(E), 6,11-ethano-12,12-diphenyl-9-trifluoromethyl-6,11-dihydrobenzo[b]quinolizinium chloride 1/4 hydrate] to `c1ccc2c(c1)C1CC(c3ncc[nH]3)(c3ncc[nH]3)C2c2cccc[n+]21` (stereo not shown) [173(e), 6,11-ethano-12,12-di(imidazol-2-yl)-6,11-dihydrobenzo[b]quinolizinium chloride], the Ki rises from 491 nM to 1670 nM (3.4-fold).

Compared with `c1ccc2c(c1)CC1C2C2c3ccccc3C1[n+]1ccccc12` (single isomer, unassigned) [Example 2(a), 6,11[[2',3']-indanyl]6,11-dihydrobenzo[b]quinolizinium chloride], `COc1cccc2c1C1c3cccc[n+]3C2CC1(c1ccccc1)c1ccccc1.[O-][Cl+3]([O-])([O-])[O-]` (stereo not shown) [25(c), 6,11-ethano-12,12-diphenyl-10-methoxy-6,11-dihydrobenzo[b]quinolizinium perchlorate] is 3.1-fold lower in Ki: 123 nM for the first, 39.3 nM for the second.

Going from “6,11-ethano-12,12-di(3-furyl)-10-stearyloxy-6,11-dihydrobenzo[b]quinolizinium chloride [Example 163]” to `CCOC(=O)CCC(=O)Oc1cccc2c1C1c3cccc[n+]3C2CC1(c1ccoc1)c1ccoc1` (stereo not shown) [Example 166, 6,11-ethano-12,12-di(3-furyl)-10-(3-ethoxycarbonyl)propionyloxy-6,11-dihydrobenzo-[b]quinolizinium chloride], the Ki rises from 7.54 nM to 61.1 nM (8.1-fold).

Compared with `COc1ccc[n+]2c1C1c3ccccc3C2CC1(c1ccoc1)c1ccoc1` (stereo not shown) [164(e), 6,11-ethano-12,12-di(3-furyl)-1-methoxy-6,11-dihydrobenzo[b]quinolizinium chloride], `Brc1cc2cn[nH]c2c2cc3cccc[n+]3cc12` [186(g), 7-bromo-9,10-pyrazolo-benzo[b]quinolizinium hexafluorophosphate] is 6.5-fold higher in Ki: 18.9 nM for the first, 122 nM for the second. The first binds more tightly here.

Compared with `COc1cccc2c1C1c3cccc[n+]3C2CC1(c1ccoc1)c1ccoc1` (stereo not shown) [66(g), 6,11-ethano-12,12-di(3-furanyl)-10-methoxy-6,11-dihydrobenzo[b]quinolizinium chloride], `Fc1ccc[n+]2c1C1c3ccccc3C2CC1(c1ccoc1)c1ccoc1.[O-][Cl+3]([O-])([O-])[O-]` (stereo not shown) [197(d), 6,11-ethano-12,12-di(3-furyl)-1-fluoro-6,11-dihydrobenzo[b]quinolizinium perchlorate] is 2.3-fold higher in Ki: 6 nM for the first, 13.8 nM for the second. The first binds more tightly here.

Compared with `Oc1ccc2c(c1)C1c3cccc[n+]3C2CC1(c1ccccc1)c1ccccc1` (stereo not shown) [34(b), 6,11-ethano-12,12-diphenyl-9-hydroxy-6,11-dihydrobenzo[b]quinolizinium chloride], `CCOC1(c2ccoc2)CC2(C)c3ccccc3C1c1cccc[n+]12` [13(b), 6,11-ethano-12-(3-furyl)-12-ethoxy-6-methyl-6,11-dihydrobenzo[b]quinolizinium monobenzoyl-D-tartarate] is 2.1-fold higher in Ki: 21.9 nM for the first, 45 nM for the second.

Going from `COc1cccc(C2(c3cccc(OC)c3)CC3c4ccccc4C2c2cccc[n+]23)c1` (stereo not shown) [35(c), 6,11-ethano-12,12-di(m-methoxyphenyl)-6,11-dihydrobenzo[b]quinolizinium chloride] to `CC(=O)Oc1ccc[n+]2c1C1c3ccccc3C2CC1(c1ccoc1)c1ccoc1` (stereo not shown) [Example 170, 6,11-ethano-12,12-di(3-furyl)-1-acetyloxy-6,11-dihydrobenzo-[b]quinolizinium chloride], the Ki rises from 41 nM to 232 nM (5.7-fold).

First: COc1cccc2c1C1c3cccc[n+]3C2(C)CC1(c1ccccc1)c1ccccc1 (stereo not shown) [37(E), 6,11-ethano-12,12-diphenyl-10-methoxy-6-methyl-6,11-dihydrobenzo[b]quinolizinium chloride]
Second: CCOC(=O)CC(C)(C)C(=O)Oc1cccc2c1C1c3cccc[n+]3C2CC1(c1ccoc1)c1ccoc1 (stereo not shown) [178(d), 6,11-ethano-12,12-di(3-furyl)-10-(OC(O)C(CH3)2 CH2 CO2Et)-6,11-dihydrobenzo[b]quinolizinium chloride]
The Ki of the first is 39-fold lower: 36.7 nM for the first, 1430 nM for the second.

Compared with `[O-][Cl+3]([O-])([O-])[O-].c1ccc2c(c1)C1CC(c3cncs3)(c3cncs3)C2c2cccc[n+]21` (stereo not shown) [62(c), 6,11-ethano-12,12-di(5-thiazolyl)-6,11-dihydrobenzo[b]quinolizinium perchlorate], `COc1cccc(C2(c3cccc(OC)n3)CC3c4ccccc4C2c2cccc[n+]23)n1.[O-][Cl+3]([O-])([O-])[O-]` (stereo not shown) [67(e), 6,11-ethano-12,12-di-(6-methoxypyridin-2-yl)-6,11-dihydrobenzo[b]quinolizinium perchlorate] is 1.5-fold lower in Ki: 120 nM for the first, 80 nM for the second.

Compared with `COc1ncccc1C1(c2cccnc2OC)CC2c3ccccc3C1c1cccc[n+]12.[O-][Cl+3]([O-])([O-])[O-]` (stereo not shown) [160(d), 6,11-ethano-12,12-di-(2-methoxypyridin-3-yl)-6,11-dihydrobenzo[b]quinolizinium perchlorate], `c1ccc2c(c1)C1C3CCc4occc4C3(c3cc4ccccc4o3)C2c2cccc[n+]21` (stereo not shown) [10(c-G), 6,11[[5',4']-4'-(2-benzofuryl)-4',5',6',7'-tetrahydrobenzofuryl]6,11-dihydrobenzo[b]quinolizinium hexafluorophosphate] is 9.8-fold higher in Ki: 453 nM for the first, 4450 nM for the second. The first binds more tightly here.

Same assay, conditions: inhibition of [3H]TCP binding at 10 μM

Going from `[Cl-].c1ccc2c(c1)C1CC(c3ccncc3)(c3ccncc3)C2c2cccc[n+]21` (stereo not shown) [49(E), 6,11-ethano-12,12-di(4-pyridyl)-6,11-dihydrobenzo[b]quinolizinium chloride] to `Cc1ccc(C2(c3ccc(C)cc3)CC3c4ccccc4C2c2cccc[n+]23)cc1.[Cl-]` (stereo not shown) [30(c), 6,11-ethano-12,12-di-(p-methylphenyl)-6,11-dihydrobenzo[b]quinolizinium chloride], the “[3H]TCP percent inhibition @ 10 μm” value falls from 54% to 22%.
